The values below come from patent US9458172B2, “Pyridinyl and pyrimidinyl sulfoxide and sulfone derivatives” (priority 2012, dated 2016).

Each structure is given as a SMILES string.

The test system of one test is mouse mammary carcinoma. As to conditions: mouse mammary carcinoma model; cited from earlier work.
A further test has as its system tumor cell lines. To be noted: broad range of tumor cell lines; cited from earlier work.
The next test has as its target NAMPT (Homo sapiens (Human), UniProt P43490). Nature of the test: Biochemical Inhibition Assay (NAMPT enzymatic reaction, NMN quantified by mass spectrometry). To be noted: 33 nM recombinant His-tagged NAMPT, 1 μM NAM, 30 min at rt. In outline:
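His-tagged human NAMPT from E. coli preincubated 15 min at rt with compound in 50 mM Hepes pH 7.5, 50 mM NaCl, 5 mM MgCl2, 1 mM THP, then reacted 30 min at rt with 1 μM NAM, […] PRPP, 2.5 mM ATP. NMN quantified by RapidFire mass spectrometry, normalized to L-Cystathionine, background subtracted.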

A further test deals with A2780 cells. Nature of the test: In-Vitro Cell Proliferation Assay (SRB). As to conditions: Homo sapiens, A2780, 72 h, read-out: Cell Proliferation (IC50).

Chain of NAMPT (P43490 whole entry): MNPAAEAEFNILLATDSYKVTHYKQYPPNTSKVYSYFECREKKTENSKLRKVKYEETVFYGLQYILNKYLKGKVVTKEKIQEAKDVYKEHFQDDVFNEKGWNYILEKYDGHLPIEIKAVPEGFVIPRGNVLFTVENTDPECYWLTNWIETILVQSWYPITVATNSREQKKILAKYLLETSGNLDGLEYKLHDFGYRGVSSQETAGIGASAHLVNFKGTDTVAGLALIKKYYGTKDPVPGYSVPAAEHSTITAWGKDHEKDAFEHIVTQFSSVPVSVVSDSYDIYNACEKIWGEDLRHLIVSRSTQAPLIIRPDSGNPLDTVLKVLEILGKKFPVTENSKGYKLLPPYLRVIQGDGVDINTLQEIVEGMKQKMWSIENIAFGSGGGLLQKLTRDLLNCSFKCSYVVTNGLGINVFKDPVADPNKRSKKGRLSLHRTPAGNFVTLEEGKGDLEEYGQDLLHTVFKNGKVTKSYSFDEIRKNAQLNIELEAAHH

On to `O=C(/C=C/c1cccnc1)NCCCCC1CCN(C(=O)c2ccccc2)CC1` [FK866], for which, in the test on mouse mammary carcinoma, the NAD levels entry is “reduce NAD levels”, the tumor growth entry is listed as “induce a delay in tumor growth” and the tumor radiosensitivity entry was “enhance tumor radiosensitivity”.

As for `N#CN=C(NCCCCCCOc1ccc(Cl)cc1)Nc1ccncc1` [CHS-828], in the test on tumor cell lines, the cell growth result is given as “potently inhibit cell growth”.

Take `CN(C)c1ccc(S(=O)(=O)c2ccc(CNC(=O)c3cc4ccncc4o3)nc2)cn1` [Example 67, Furo[2,3-c]pyridine-2-carboxylic acid [5-(6-dimethylamino-pyridine-3-sulfonyl)-pyridin-2-ylmethyl]-amide]: the IC50 came out at 2.6 nM at NAMPT and 1.9 nM with A2780 cells.

For the compound `O=C(NCc1ccc(S(=O)(=O)c2cc(F)cc(F)c2)cn1)c1cnc2[nH]ncc2c1` [Example 1, 1H-Pyrazolo[3,4-b]pyridine-5-carboxylic acid [5-(3,5-difluoro-benzenesulfonyl)-pyridin-2-ylmethyl]-amide], the values for the IC50 at NAMPT and in the test on A2780 cells were 56.3 nM and 91 nM, respectively.

Consider `O=C(NCc1ccc(S(=O)(=O)N2CCN(C3COC3)CC2)cn1)N1Cc2ccncc2C1` [Example 142, N-[[5-[4-(oxetan-3-yl)piperazin-1-yl]sulfonyl-2-pyridyl]methyl]-1,3-dihydropyrrolo[3,4-c]pyridine-2-carboxamide], for which the IC50 at NAMPT worked out at 220 nM; in the test on A2780 cells it was 255 nM.

Take `O=C(NCc1ccc(S(=O)(=O)c2ccc(N3CCOCC3)cc2)cn1)c1cc2ccncc2o1` [Example 37, Furo[2,3-c]pyridine-2-carboxylic acid [5-(4-morpholin-4-yl-benzenesulfonyl)-pyridin-2-ylmethyl]-amide]: the results for the IC50 at NAMPT and in the test on A2780 cells were 3.5 nM and 1 nM, respectively.

`O=C(NCc1ccc(S(=O)(=O)c2ccc(C(F)(F)F)nc2)cn1)c1ccc2nccn2c1` [Example 82, Imidazo[1,2-a]pyridine-6-carboxylic acid [5-(6-trifluoromethyl-pyridine-3-sulfonyl)-pyridin-2-ylmethyl]-amide]: the IC50 on NAMPT came to 72.3 nM; in the test on A2780 cells, 330 nM.

For `CCS(=O)(=O)c1cccc(S(=O)(=O)c2ccc(CNC(=O)c3ccc4nccn4c3)nc2)c1` [Example 96, Imidazo[1,2-a]pyridine-6-carboxylic acid [5-(3-ethanesulfonyl-benzenesulfonyl)-pyridin-2-ylmethyl]-amide], the IC50 came out at 19.3 nM on NAMPT and 38.1 nM with A2780 cells.
